Test results as given in paper PMC7381267, “A Bromodomain-Containing Protein 4 (BRD4) Inhibitor Suppresses Angiogenesis by Regulating AP-1 Expression” (Frontiers in Pharmacology, 2020).
Read-outs that look alike come from different tables or passages of the source.

Tests used:
[1] = test system: chick embryo CAM vasculature; assay: Chick embryo chorioallantoic membrane (CAM) anti-angiogenesis assay; type: in vivo; conditions: 48 h; for Positive Ratio / Inhibitory effect on MVD compared with (+)-JQ1 / Inhibitory effect on microvessel density (MVD): 50 μg/ml; for Positive Ratio: embryos with ++ and +++ compared with total number of embryos; for Anti-angiogenic activity, egg number 2: egg 2; for Anti-angiogenic activity, egg number 3: egg 3; for Anti-angiogenic activity, egg number 5: egg 5; for Anti-angiogenic activity, egg number 4: egg 4; for Anti-angiogenic activity, egg number 1: egg 1; for Inhibitory effect on MVD compared with (+)-JQ1 / Inhibitory effect on microvessel density (MVD) / Inhibition of MVD compared to DMSO / Inhibitory efficacy on MVD compared with (+)-JQ1: CAM; for Inhibitory effect on MVD compared with (+)-JQ1 / Inhibitory effect on microvessel density (MVD): Figure 1C; for Inhibition of MVD compared to DMSO: 25, 50 and 100 μM, Figure 2F; for Inhibitory efficacy on MVD compared with (+)-JQ1: at each of 25, 50 and 100 μM
Experimental: Fertilized white leghorn chicken eggs were obtained from the Avian Farm of South China Agriculture University (Guangzhou, China) and the shells were cleaned with 1% geramine. […] A small window (10 × 10 mm^2) was cut above the air chamber of egg while the chick embryo was growing through the ninth day. BET family member inhibitors or DMSO (dissolved in 30 µl of phosphate-buffered saline [PBS, pH 7.4]) were placed directly onto the live chick embryo CAM through the window at the indicated concentrations and incubated for 48 h. Then, the eggshells were cut carefully along the axis of the median line, and the content was discarded. The CAM vasculature around the eggshell windows was observed and photographed under a stereomicroscope (Olympus SZX16). The microvessel density (MVD) was calculated as the percentage of blood vessel area in the total drug-treated area using the Image-Pro Plus 6.0 software (IPP 6.0, Media Cybernetics, Inc., Rockville MD, USA).
The effects of all these selected compounds on angiogenesis were first determined through use of the chick embryo CAM model. […] Each of the compounds (50 μg/ml) was added to the CAM of 9-day-old chick embryos for 48 h. The CAMs of chick embryos were photographed, and the inhibition ratio indicating angiogenesis was calculated and analyzed. […] An inhibitory effect observable but not obvious on the generation of third-grade vessels was indicated by “+”; an obvious medium-level inhibitory effect on secondary vessels was indicated by “++”; and an obvious potent inhibitory effect on primary blood vessels was indicated by “+++”.

[2] = target: T1, BRD2 BD1 (Homo sapiens, UniProt P25440); assay: TR-FRET assay, BRD2 BD1; type: binding
T1 construct: purchased Cayman Chemical
Experimental: (§1) The specificity of the designed and synthesized compounds for BRD4 was also evaluated through comparison with those for BRD2.
(§2) As acetylated histone peptides are known substrates for bromodomain-containing proteins, we initially screened the complexes for their ability to modulate the protein–protein interaction between acetylated lysine and BET family members. […] Then, the IC50 of the compounds that prevent BRD4 (BD1 or BD2)/BRD2 (BD1 or BD2) and acetylated histone interactions was calculated by TR-FRET assay in vitro.

[3] = target: T2, BRD2 BD2 (Homo sapiens, UniProt P25440); assay: TR-FRET assay, BRD2 BD2; type: binding
T2 construct: purchased Cayman Chemical
Experimental: as §1, §2

[4] = test system: HUVECs; assay: Cell viability by CCK-8 assay; type: cell-based, human; conditions: for Cell viability compared with DMSO or (−)-JQ1: 8.5 μM, 96 h; for IC50: Homo sapiens, HUVEC, read-out: 50% inhibition concentration of cell viability
Experimental: Cell viability after BET family member inhibitor treatment was evaluated by CCK-8 assay. HUVECs were seeded in 96-well plates at a density of 2,000 cells/well. Twenty-four hours later, the BET family member inhibitors, (−)-JQ1 (negative control drug) and DMSO (solvent group) were added at the indicated concentrations. […] The absorbance was evaluated at 450 nm to determine cell viability.
Furthermore, (−)-JQ1 was employed as a negative control, and DMSO was employed as a solvent control. […].

[5] = test system: chick embryo YSM vessels; assay: Chick embryo yolk sac membrane (YSM) anti-angiogenesis assay; type: in vivo; conditions: 100 μM, 24 h; for Blood vessel density and number of blood vessels compared with DMSO: YSM of 3-day-old chick embryos
Experimental: On the third day of incubation, the well-developed live chicken embryos were carefully transferred into sterilized dishes, and the chick embryo vessels were arranged to face upward. Color marked silastic rings were symmetrically placed onto the top of the vessel regions of the yolk sac membrane and incubated for 3 h in the incubator. Then, 100 μM BET family member inhibitors or DMSO (dissolved in 30 µl of PBS, pH 7.4) was added into the center of the rings and cultured in the incubator for 24 h. Images of the vessels in the silastic rings were captured at 0 and 24 h, respectively. The images were quantitatively analyzed by Image-Pro Plus 6.0, and then the number of blood vessels 24 h after drug treatment and the MVD at 0 and 24 h were quantified using IPP 6.0. The growth rate in the DMSO-treated silica gel circle was considered to be one.

[6] = target: T3, BRD4 BD1 (Homo sapiens, UniProt O60885); assay: TR-FRET assay, BRD4 BD1; type: binding
T3 construct: purchased Cayman Chemical
Experimental: as §1, §2

[7] = test system: H3K122Ac; design: method as in Liu et al., 2020; conditions: ref Liu et al., 2020; cited from earlier work
[8] = test system: c-jun and c-fos (AP-1) in HUVECs; assay: Immunoblot of AP-1 components; type: cell-based, human; conditions: 48 h
Experimental: Then, the proteins of these cells were extracted using RIPA buffer and separated by 10% (w/v) sodium dodecyl sulphate-polyacrylamide gel electrophoresis (SDS-PAGE). The separated proteins were transferred onto a polyvinylidene fluoride (PVDF) membrane (Millipore, MA, USA) and blocked using 5% (w/v) non-fat powder milk at room temperature. Next, the membranes were incubated in the relative primary antibody and horseradish peroxidase (HRP)-conjugated secondary antibodies. Then, the Image Quant LAS 4000 system (GE Healthcare, Waukesha, WI, USA) was used for the direct visualization of the membranes. The protein bands were densitometrically quantified using Quantity-One protein analysis software (Bio-Rad Laboratories, Hercules, CA, USA). The relative expression of the proteins was normalized to the expression of glyceraldehyde-3-phosphate dehydrogenase (GAPDH).
[…]. […] […].

[9] = test system: HUVECs; assay: Tube formation assay; conditions: 8.5 μM, 48 h pretreatment, then 5 h on Matrigel
Experimental: The circumference of the formed tubes was measured under an inverted light microscope.

[10] = target: T4, BRD4 BD2 (Homo sapiens, UniProt O60885); assay: TR-FRET assay, BRD4 BD2; type: binding
T4 construct: purchased Cayman Chemical
Experimental: as §1, §2

[11] = 50 μg/ml on CAM of 9-day-old chick embryos

T2 sequence (P25440 344-453 limits assumed): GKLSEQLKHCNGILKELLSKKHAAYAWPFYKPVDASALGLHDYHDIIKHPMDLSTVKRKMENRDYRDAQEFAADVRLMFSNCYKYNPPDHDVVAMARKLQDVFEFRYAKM
T1 sequence (P25440 74-180 limits assumed): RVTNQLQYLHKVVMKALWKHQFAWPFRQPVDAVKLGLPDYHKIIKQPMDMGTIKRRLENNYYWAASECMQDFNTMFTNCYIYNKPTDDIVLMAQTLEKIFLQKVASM

Cc1cc(N=Nc2ccc3c(c2)CCC(=O)N3)c(N)cc1O [ZL0518(8)]
Anti-angiogenic activity, egg number 6 ([1]; 50 μg/ml on CAM of 9-day-old chick embryos, egg 6): +
Positive Ratio [1]: 1/3

Cc1ccc(S(=O)(=O)OC[C@@H]2CCCN2S(=O)(=O)c2ccc(NC(=O)Nc3ccc(C(F)(F)F)cc3)cc2)cc1 [ZL0586(12)]
Anti-angiogenic activity, egg number 2 [1, 11]: +
Anti-angiogenic activity, egg number 3 [1, 11]: +
Anti-angiogenic activity, egg number 5 [1, 11]: +
Positive Ratio [1]: 2/5

Cc1cc(N=Nc2ccc(S(=O)(=O)N3CCCC3)cc2)c(N)cc1O [ZL0452(5)]
Anti-angiogenic activity, egg number 2 [1, 11]: +
Anti-angiogenic activity, egg number 4 [1, 11]: +
Positive Ratio [1]: 1/4

N#CC(=NNc1ccc2c(c1)CCC(=O)N2)C(=O)c1ccc(OC(F)(F)F)cc1 [ZL0593(15)]
Anti-angiogenic activity, egg number 3 [1, 11]: +
Positive Ratio [1]: 3/5

Cc1cc(N=Nc2ccc(S(=O)(=O)NC3CCCC3)cc2)cc(C)c1O [ZL0453(6)]
Anti-angiogenic activity, egg number 1 [1, 11]: +
Anti-angiogenic activity, egg number 4 [1, 11]: +
Anti-angiogenic activity, egg number 5 [1, 11]: +
Positive Ratio [1]: 1/5

COC(=O)C1CCCN1S(=O)(=O)c1ccc(NC(=O)c2ccc(C(F)(F)F)cc2)cc1 (stereo not drawn) [ZL0520(10)]
Anti-angiogenic activity, egg number 1 [1, 11]: +
Anti-angiogenic activity, egg number 4 [1, 11]: +
Positive Ratio [1]: 1/5

CC(C)(C)c1cc(-c2nnc(-c3cc(F)c(F)c(F)c3)o2)no1 [ZL0164(4)]
Anti-angiogenic activity, egg number 5 [1, 11]: +
Positive Ratio [1]: 2/5

Cc1cc(/N=N/c2ccc(S(=O)(=O)Nc3ccccn3)cc2)c(N)cc1O [MS436 (3), reference compound]
Anti-angiogenic activity, egg number 5 [1, 11]: +
Inhibitory effect on MVD compared with (+)-JQ1 [1]: better than that of the (+)-JQ1 positive control
Inhibitory effect on microvessel density (MVD) [1]: most impressive inhibitory effect on MVD
Inhibition of MVD compared to DMSO [1]: significantly inhibited MVD in a concentration-dependent manner
Inhibitory efficacy on MVD compared with (+)-JQ1 [1]: stronger inhibitory efficacy than (+)-JQ1
IC50 [2]: 797 nM
IC50 [3]: 846 nM

COc1cc(OC)c2c(=O)cc(-c3cc(C)c(OC[C@H](O)CN4CCCCC4)c(C)c3)oc2c1 [ZL0513 (7)]
Cell viability compared with DMSO or (−)-JQ1 ([4]; HUVECs): significantly suppressed cell viability
IC50 ([4]; HUVECs, CCK-8, concentration range 0.3 to 15 μM): 8500 nM
Inhibition efficacy on angiogenesis in YSM compared with (+)-JQ1 [5]: significantly higher than that of (+)-JQ1 (1) treatment
Blood vessel density and number of blood vessels compared with DMSO [5]: significantly reduced
Anti-angiogenic activity, egg number 4 [1, 11]: +
Inhibitory effect on MVD compared with (+)-JQ1 [1]: better than that of the (+)-JQ1 positive control
Inhibitory effect on microvessel density (MVD) [1]: most impressive inhibitory effect on MVD
Positive Ratio [1]: 4/5
Inhibition of MVD compared to DMSO [1]: significantly inhibited MVD in a concentration-dependent manner
Inhibitory efficacy on MVD compared with (+)-JQ1 [1]: stronger inhibitory efficacy than (+)-JQ1
IC50 [2]: 791 nM
IC50 [3]: 845 nM
Selectivity window to BRD4 over BRD2 ([6]; BRD4 versus BRD2): 10 fold
IC50 ([6]; TR-FRET): 67 nM
Effect on poly(I:C)-induced H3K122Ac [7]: block poly(I:C)-induced H3K122Ac
Expression of c-jun compared with DMSO [8]: significantly inhibited the expression of c-jun
Phosphorylation of c-jun and c-fos compared with DMSO [8]: significantly inhibited
Tube formation (tube circumference) compared with DMSO [9]: reduction in tube circumference
IC50 [10]: 684 nM

COc1cc(OC)c2c(=O)cc(-c3ccc(OCC4CO4)cc3)oc2c1 (stereo not drawn) [ZL0519 (9)]
Positive Ratio [1]: 3/4

Cc1cc(/N=N/c2ccc(S(=O)(=O)NC3CCCC3)cc2)c(N)cc1O [ZL0454 (2)]
Anti-angiogenic activity, egg number 5 [1, 11]: +
Inhibitory effect on microvessel density (MVD) [1]: most impressive inhibitory effect on MVD
Inhibition of MVD compared to DMSO [1]: significantly inhibited MVD in a concentration-dependent manner
Inhibitory efficacy on MVD compared with (+)-JQ1 [1]: stronger inhibitory efficacy than (+)-JQ1

Cc1sc2c(c1C)C(c1ccc(Cl)cc1)=N[C@@H](CC(=O)OC(C)(C)C)c1nnc(C)n1-2 [(+)-JQ1 (1), reference compound]
Cell viability compared with DMSO or (−)-JQ1 ([4]; HUVECs): significantly suppressed cell viability
IC50 [4]: 5000 nM
Blood vessel density and number of blood vessels compared with DMSO [5]: significantly reduced
Inhibitory effect on microvessel density (MVD) [1]: most impressive inhibitory effect on MVD
Inhibition of MVD compared to DMSO [1]: significantly inhibited MVD in a concentration-dependent manner
Expression of c-jun compared with DMSO [8]: significantly inhibited the expression of c-jun
Phosphorylation of c-jun and c-fos compared with DMSO [8]: significantly inhibited
Tube formation (tube circumference) compared with DMSO [9]: reduction in tube circumference

O=C(Nc1ccc(C(F)(F)F)cc1)N1CCN(c2ccc(O)cc2)CC1 [ZL0589(14)]
Anti-angiogenic activity, egg number 5 [1, 11]: +
Positive Ratio [1]: 2/5

COc1cc(OC)c2c(=O)cc(-c3ccc(OCC(O)CN4CCCCC4)cc3)oc2c1 (stereo not drawn) [HJC5100(16)]
Anti-angiogenic activity, egg number 1 [1, 11]: +
Anti-angiogenic activity, egg number 3 [1, 11]: +
